Source: patent US11896582B2, “Use and composition for treating myasthenia gravis and other myasthenic syndromes” (priority 2017, dated 2024)
“And” between values parts separate entries of the source, which are not always exact repeats. Equal values may be shown once.

Tested on: human subjects
Experiment: Phase I single-blind study: single increasing oral doses of pyridostigmine bromide with or without ondansetron, gastro-intestinal tolerability
Assay type: in vivo
Conditions: healthy volunteers, one value per subject; for FID-1 Dose Limiting Adverse Event: pyridostigmine alone, oral
Description: A Phase I study was conducted in human subjects receiving a single oral dose of pyridostigmine bromide with or without a single oral dose of ondansetron hydrochloride dihydrate (“ondansetron”), as a representative 5HT3-antagonist. The study was a single center, single-blind study.
Following enrollment in the study, participants received single increasing oral doses of pyridostigmine, given once daily in the morning. The starting dose of pyridostigmine was 30 mg and the dose was increased daily by 30 mg increments. Once a subject had reached his/her first intolerable dose (“FID-1”), upward dose escalation was discontinued. FID was defined as: • (a) One (1) episode of vomiting, or • (b) Two (2) episodes of retching, or • (c) One (1) episode of severe nausea (Grade 3; defined as nausea interfering with activities of daily living or inadequate oral caloric or fluid intake; tube feeding, total parenteral nutrition or hospitalization indicated) lasting more than 1 hour, or • (d) Three (3) consecutive episodes at every 4-hour ratings of moderate nausea (Grade 2; defined as subjectively symptomatic, but not interfering with activities of daily living), or • (e) One (1) episode of moderate diarrhea (Grade 2; defined as 4-6 stools more than at baseline).
When a subject reached FID-1 on pyridostigmine alone, the subject was washed out for 2 to 7 days, and then received single daily doses of pyridostigmine starting at 30 mg and titrated upward by 30 mg increments, together with oral ondansetron hydrochloride dihydrate (10 mg, equivalent to 8 mg ondansetron base) until subjects again reached an intolerable dose (FID-2).
On each study day, subjects were followed up for up to 8 hours following drug administration for AEs, vital signs, ECGs. In addition, a laboratory panel was taken at screening and at the end of the study.

CN(C)C(=O)Oc1ccc[n+](C)c1 [Pyridostigmine, Pyridostigmine bromide]
FID-1 (Pyridostigmine alone) (first intolerable dose, single oral daily doses from 30 mg, raised by 30 mg increments): 60 mg (2×) and 90 mg
MTD-1 (Pyridostigmine alone) (maximum tolerated single oral dose): 30 mg and 60 mg
FID-1 Dose Limiting Adverse Event: Vomiting
FID-1 Dose Limiting Adverse Event (listed as pyridostigmine): vomiting
